Each compound was assayed against T1, Human LPA1 (Homo sapiens, UniProt Q92633) (assay: LPA1 calcium flux assay). Conditions: CHO cells expressing human LPA1, stimulated with 10 nM LPA; read-out: LPA1 Ca^2+ flux.
T1 construct: the full-length cDNA for human LPA1 was obtained by PCR of the reverse transcription reaction; expressed in transfected cells
T1 sequence (Q92633 whole entry): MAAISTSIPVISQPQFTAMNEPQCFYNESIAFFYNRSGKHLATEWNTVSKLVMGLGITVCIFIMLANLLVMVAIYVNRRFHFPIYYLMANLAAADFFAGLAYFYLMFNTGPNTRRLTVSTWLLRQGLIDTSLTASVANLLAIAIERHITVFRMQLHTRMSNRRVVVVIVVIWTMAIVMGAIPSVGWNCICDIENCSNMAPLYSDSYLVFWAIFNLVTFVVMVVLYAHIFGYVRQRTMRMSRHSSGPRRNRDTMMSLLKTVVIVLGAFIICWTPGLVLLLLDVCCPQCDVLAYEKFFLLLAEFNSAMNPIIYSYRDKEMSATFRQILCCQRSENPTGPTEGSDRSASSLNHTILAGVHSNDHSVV
Format: cell-based
Method: A 1.1 kb cDNA encoding the human LPA1 receptor was cloned from human lung. Human lung RNA (Clontech Laboratories, Inc. USA) was reverse transcribed using the RETROSCRIPT® kit (Ambion, Inc.) and the full-length cDNA for human LPA1 was obtained by PCR of the reverse transcription reaction. The nucleotide sequence of the cloned human LPA1 was determined by sequencing and confirmed to be identical to the published human LPA1 sequence (An et al., Biochem. Biophys. Res. Commun. 231:619 (1997). The cDNA was cloned into the pcDNA5/FRT expression plasmid and transfected in CHO cells using Lipofectamine 2000 (Invitrogen Corp., USA). Clones stably expressing human LPA1 were selected using hygromycin and identified as cells that show Ca-influx in response to LPA.
Human LPA1 or LPA3 expressing CHO cells are seeded at 20,000-45,000 cells per well in a 96-well poly-D-lysine coated plate one or two days before the assay. Prior to the assay, the cells are washed once with PBS and then cultured in serum-free media overnight. On the day of the assay, a calcium indicator dye (Calcium 4, Molecular Devices) in assay buffer (HBSS with Ca^2+ and Mg^2+ and containing 20 mM Hepes and 0.3% fatty-acid free human serum albumin) is added to each well and incubation continued for 1 hour at 37° C. 10 μl of test compounds in 2.5% DMSO are added to the cells and incubation continued at room temperature for 30 minutes. Cells are the stimulated by the addition of 10 nM LPA and intracellular Ca^2+ measured using the FLEXSTATION® 3 (Molecular Devices). IC50s are determined using Graphpad prism analysis of drug titration curves.
With `C[C@@H](OC(=O)Nc1cnccc1-c1ccc(-c2ccc(C3(C(=O)O)CC3)cc2)cc1)c1ccccc1` [Compound 1-3, 1-{4′-[3-((R)-1-phenyl-ethoxycarbonylamino)-pyridin-4-yl]-biphenyl-4-yl}-cyclopropanecarboxylic acid] the IC50 was 0.3 to 1 µM.
In the case of `C[C@@H](OC(=O)Nc1ncoc1-c1ccc(-c2ccc(C3(C(=O)O)CC3)cc2)cc1)c1ccccc1` [Compound 1-4, 1-{4′-[4-((R)-1-phenyl-ethoxycarbonylamino)-oxazol-5-yl]-biphenyl-4-yl}-cyclopropanecarboxylic acid], the IC50 is reported as less than 0.3 µM.
`Cn1ncc(-c2ccc(-c3ccc(C4(C(=O)O)CC4)cc3)cc2)c1NCc1cnc(-c2ccccc2)s1` [Compound 1-25, 1-(4′-{1-methyl-5-[(2-phenyl-thiazol-5-ylmethyl)-amino]-1H-pyrazol-4-yl}-biphenyl-4-yl)-cyclopropanecarboxylic acid] gave an IC50 of 1 to 10 µM.
In the case of `O=C(O)C1(c2ccc(-c3ccc(-c4cnccc4C(O)CCCc4ccccc4)cc3)cc2)CC1` (centres unmarked) [Compound 1-17, 1-{4′-[4-(1-hydroxy-4-phenyl-butyl)-pyridin-3-yl]-biphenyl-4-yl}-cyclopropanecarboxylic acid], the IC50 is reported as less than 0.3 µM.
Compound `O=C(O)C1(c2ccc(-c3ccc(-c4sccc4C(O)CCCc4ccccc4)cc3)cc2)CC1` (single isomer, unassigned) [Compound 1-26, 1-{4′-[3-(1-hydroxy-4-phenyl-butyl)-thiophen-2-yl]-biphenyl-4-yl}-cyclopropanecarboxylic acid] has an IC50 of less than 0.3 µM.
Work on `Cn1ncc(-c2ccc(-c3ccc(C4(C(=O)O)CC4)cc3)cc2)c1Nc1cccc(-c2ccccc2)n1` [Compound 1-20, 1-{4′-[1-methyl-5-(6-phenyl-pyridin-2-ylamino)-1H-pyrazol-4-yl]-biphenyl-4-yl}-cyclopropanecarboxylic acid] yielded an IC50 of less than 0.3 µM.
For `O=C(O)CC1(c2ccc(-c3ccc(-c4sccc4C(O)CCCc4ccccc4)cc3)cc2)CC1` (centres unmarked) [Compound 1-19, (1-{4′-[3-(1-hydroxy-4-phenyl-butyl)-thiophen-2-yl]-biphenyl-4-yl}-cyclopropyl)-acetic acid], the IC50 was less than 0.3 µM.
With `CCn1ncc(-c2ccc(-c3ccc(C4(CC(=O)O)CC4)cc3)cc2)c1C(O)CCCc1ccccc1` (centres unmarked) [Compound 1-24, (1-{4′-[1-ethyl-5-(1-hydroxy-4-phenyl-butyl)-1H-pyrazol-4-yl]-biphenyl-4-yl}-cyclopropyl)-acetic acid] the IC50 was less than 0.3 µM.
`C[C@@H](OC(=O)Nc1ccccc1-c1ccc(-c2ccc(C3(C(=O)O)CC3)cc2)cc1)c1ccccc1` [Compound 1-2, 1-[2″-((R)-1-phenyl-ethoxycarbonylamino)-[1,1′;4′,1″]terphenyl-4-yl]-cyclopropanecarboxylic acid] gave an IC50 of less than 0.3 µM.
`O=C(O)C1(c2ccc(-c3ccc(-c4sccc4C(O)CCCc4ccccc4)cc3)cc2)CC1` (centres unmarked) [Compound 1-18, 1-{4′-[3-(1-hydroxy-4-phenyl-butyl)-thiophen-2-yl]-biphenyl-4-yl}-cyclopropanecarboxylic acid] showed an IC50 of less than 0.3 µM.
`Cn1ncc(-c2ccc(-c3ccc(C4(CC(=O)O)CC4)cc3)cc2)c1C(O)CCCc1ccccc1` (centres unmarked) [Compound 1-10, (1-{4′-[5-(1-hydroxy-4-phenyl-butyl)-1-methyl-1H-pyrazol-4-yl]-biphenyl-4-yl}-cyclopropyl)-acetic acid] showed an IC50 of less than 0.3 µM.
`O=C(O)C1(c2ccc(-c3ccc(-c4ccsc4C(O)CCCc4ccccc4)cc3)cc2)CC1` (centres unmarked) [Compound 1-6, 1-{4′-[2-(1-hydroxy-4-phenyl-butyl)-thiophen-3-yl]-biphenyl-4-yl}-cyclopropanecarboxylic acid] gave an IC50 of less than 0.3 µM.
Work on `O=C(O)CC1(c2ccc(-c3ccc(-c4cscc4C(O)CCCc4ccccc4)cc3)cc2)CC1` (centres unmarked) [Compound 1-14, (1-{4′-[4-(1-hydroxy-4-phenyl-butyl)-thiophen-3-yl]-biphenyl-4-yl}-cyclopropyl)-acetic acid] yielded an IC50 of less than 0.3 µM.
Work on `O=C(O)C1(c2ccc(-c3ccc(-c4cscc4C(O)CCCc4ccccc4)cc3)cc2)CC1` (centres unmarked) [Compound 1-15, 1-{4′-[4-(1-hydroxy-4-phenyl-butyl)-thiophen-3-yl]-biphenyl-4-yl}-cyclopropanecarboxylic acid] yielded an IC50 of less than 0.3 µM.
Work on `O=C(O)C1(c2ccc(-c3ccc(-c4ccncc4C(O)CCCc4ccccc4)cc3)cc2)CC1` (centres unmarked) [Compound 1-9, 1-{4′-[3-(1-Hydroxy-4-phenyl-butyl)-pyridin-4-yl]-biphenyl-4-yl}-cyclopropanecarboxylic acid] yielded an IC50 of less than 0.3 µM.
In the case of `CCn1ncc(-c2ccc(-c3ccc(C4(C(=O)O)CC4)cc3)cc2)c1C(O)CCCc1ccccc1` (centres unmarked) [Compound 1-23, 1-{4′-[1-ethyl-5-(1-hydroxy-4-phenyl-butyl)-1H-pyrazol-4-yl]-biphenyl-4-yl}-cyclopropanecarboxylic acid], the IC50 is reported as less than 0.3 µM.
`O=C(O)CC1(c2ccc(-c3ccc(-c4ncccc4C(O)CCCc4ccccc4)cc3)cc2)CC1` (centres unmarked) [Compound 1-12, (1-{4′-[3-(1-hydroxy-4-phenyl-butyl)-pyridin-2-yl]-biphenyl-4-yl}-cyclopropyl)-acetic acid] showed an IC50 of less than 0.3 µM.
`CC(CCc1ccc(Cl)cc1)Nc1c(-c2ccc(-c3ccc(C4(C(=O)O)CC4)cc3)cc2)cnn1C` (centres unmarked) [Compound 1-21, 1-(4′-{5-[3-(4-chloro-phenyl)-1-methyl-propylamino]-1-methyl-1H-pyrazol-4-yl}-biphenyl-4-yl)-cyclopropanecarboxylic acid] was tested, and the IC50 was less than 0.3 µM.
For `Cn1ncc(-c2ccc(-c3ccc(C4(C(=O)O)CC4)cc3)cc2)c1C(O)CCCc1ccccc1` (centres unmarked) [Compound 1-11, 1-{4′-[5-(1-hydroxy-4-phenyl-butyl)-1-methyl-1H-pyrazol-4-yl]-biphenyl-4-yl}-cyclopropanecarboxylic acid], the IC50 was less than 0.3 µM.
`Cn1ncc(-c2ccc(-c3ccc(C4(C(=O)O)CC4)cc3)cc2)c1C(O)c1cn(Cc2ccccc2)nn1` (centres unmarked) [Compound 1-22, 1-(4′-{5-[(1-benzyl-1H-[1,2,3]triazol-4-yl)-hydroxy-methyl]-1-methyl-1H-pyrazol-4-yl}-biphenyl-4-yl)-cyclopropanecarboxylic acid] showed an IC50 of less than 0.3 µM.
Compound `O=C(O)C1(c2ccc(-c3ccc(-c4ncc5ccccc5c4C(O)CCCc4ccccc4)cc3)cc2)CC1` (centres unmarked) [Compound 1-16, 1-{4′-[4-(1-hydroxy-4-phenyl-butyl)-isoquinolin-3-yl]-biphenyl-4-yl}-cyclopropanecarboxylic acid] has an IC50 of 1 to 10 µM.
Work on `O=C(O)CC1(c2ccc(-c3ccc(-c4ccncc4C(O)CCCc4ccccc4)cc3)cc2)CC1` (centres unmarked) [Compound 1-8, (1-{4′-[3-(1-hydroxy-4-phenyl-butyl)-pyridin-4-yl]-biphenyl-4-yl}-cyclopropyl)-acetic acid] yielded an IC50 of 0.3 to 1 µM.
Work on `O=C(O)C1(c2ccc(-c3ccc(-c4ncccc4C(O)CCCc4ccccc4)cc3)cc2)CC1` (centres unmarked) [Compound 1-5, 1-{4′-[3-(1-hydroxy-4-phenyl-butyl)-pyridin-2-yl]-biphenyl-4-yl}-cyclopropanecarboxylic acid] yielded an IC50 of less than 0.3 µM.
Work on `O=C(O)CC1(c2ccc(-c3ccc(-c4ccsc4C(O)CCCc4ccccc4)cc3)cc2)CC1` (centres unmarked) [Compound 1-13, (1-{4′-[2-(1-hydroxy-4-phenyl-butyl)-thiophen-3-yl]-biphenyl-4-yl}-cyclopropyl)-acetic acid] yielded an IC50 of less than 0.3 µM.
Work on `O=C(O)C1(c2ccc(-c3ccc(-c4sccc4C(O)CCCc4ccccc4)cc3)cc2)CC1` (single isomer, unassigned) [Compound 1-27, 1-{4′-[3-(1-hydroxy-4-phenyl-butyl)-thiophen-2-yl]-biphenyl-4-yl}-cyclopropanecarboxylic acid] yielded an IC50 of less than 0.3 µM.
`O=C(O)C1(c2ccc(-c3ccc(-c4ccccc4C(O)CCCc4ccccc4)cc3)cc2)CC1` (centres unmarked) [Compound 1-7, 1-[2-(1-hydroxy-4-phenyl-butyl)-[1,1′;4′,1″]terphenyl-4″-yl]-cyclopropanecarboxylic acid] gave an IC50 of less than 0.3 µM.

— patent US9272990B2, “Lysophosphatidic acid receptor antagonists and their use in the treatment fibrosis” (AMIRA PHARMACEUTICALS, INC., priority 2010, dated 2016)
